Test results reported in PubChem BioAssay (NCI).
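Tested at 5 concentrations; 48 h exposure; 96-well plates; endpoints linearly interpolated, else capped at highest concentration. The concentration for 50% growth inhibition is given as GI50. At the TGI there is no net growth.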

How the values were obtained:
Experiment in all cases: NCI anticancer screen, dose series, 48 h
[1] = tested on: A498 renal
[2] = tested on: A549 NSCLC
[3] = tested on: ACHN renal
[4] = tested on: BT-549 breast
[5] = tested on: CAKI-1 renal
[6] = tested on: COLO 205 colon
[7] = tested on: DU-145 prostate
[8] = tested on: EKVX NSCLC
[9] = tested on: HCC-2998 colon
[10] = tested on: HCT-116 colon
[11] = tested on: HCT-15 colon
[12] = tested on: HOP-62 NSCLC
[13] = tested on: HS 578T breast
[14] = tested on: HT29 colon
[15] = tested on: IGROV1 ovarian
[16] = tested on: K-562 leukemia
[17] = tested on: KM12 colon
[18] = tested on: LOX IMVI melanoma
[19] = tested on: M14 melanoma
[20] = tested on: MALME-3M melanoma
[21] = tested on: MCF7 breast
[22] = tested on: MDA-MB-231 breast
[23] = tested on: MDA-MB-435
[24] = tested on: MDA-N
[25] = tested on: MOLT-4 leukemia
[26] = tested on: NCI-H23 lung
[27] = tested on: NCI-H460 lung
[28] = tested on: NCI-H522 lung
[29] = tested on: NCI/ADR-RES ovarian
[30] = tested on: OVCAR-3 ovarian
[31] = tested on: OVCAR-4 ovarian
[32] = tested on: OVCAR-5 ovarian
[33] = tested on: OVCAR-8 ovarian
[34] = tested on: PC-3 prostate
[35] = tested on: RPMI-8226 leukemia
[36] = tested on: RXF 393 renal
[37] = tested on: SF-268 CNS
[38] = tested on: SF-295 CNS
[39] = tested on: SF-539 CNS
[40] = tested on: SK-MEL-2 melanoma
[41] = tested on: SK-MEL-28 melanoma
[42] = tested on: SK-MEL-5 melanoma
[43] = tested on: SK-OV-3 ovarian
[44] = tested on: SN12C renal
[45] = tested on: SNB-19 CNS
[46] = tested on: SNB-75 CNS
[47] = tested on: SR leukemia
[48] = tested on: SW-620 colon
[49] = tested on: T-47D breast
[50] = tested on: TK-10 renal
[51] = tested on: U251 CNS
[52] = tested on: UACC-257 melanoma
[53] = tested on: UACC-62 melanoma
[54] = tested on: UO-31 renal
[55] = tested on: 786-0 renal
[56] = tested on: CCRF-CEM leukemia
[57] = tested on: HL-60(TB) leukemia
[58] = tested on: NCI-H226 lung

Work on CC1(C)[C@@H]2C[C@H]1C(Cc1cccc(C[C@H]3c4cc(-c5ccccn5)ncc4[C@H]4C[C@@H]3C4(C)C)c1)c1cc(-c3ccccn3)ncc12 (some centres not stated) yielded a TGI [1] greater than 57 µM, a TGI [2] greater than 100 µM and a GI50 [3] of 0.605 µM. For the same molecule, the TGI [3] was greater than 100 µM, the TGI [4] was greater than 93.5 µM and the TGI [5] was greater than 100 µM. It also gave a TGI [6] greater than 58.6 µM, a TGI [7] greater than 100 µM and a TGI [8] greater than 46.8 µM. The TGI [9] was greater than 100 µM, the TGI [10] was greater than 100 µM and the TGI [11] was greater than 53 µM. For the same molecule, the TGI [12] was 15.5 µM, the TGI [13] was greater than 100 µM and the TGI [14] was greater than 100 µM. For the same molecule, the GI50 [15] was 0.662 µM, the TGI [15] was greater than 100 µM and the TGI [16] was greater than 100 µM. For the same molecule, the TGI [17] was greater than 76.9 µM, the TGI [18] was 4.15 µM and the GI50 [19] was 0.858 µM. The TGI [19] was 8.45 µM, the GI50 [20] was 3.65 µM and the TGI [20] was 44.9 µM. For the same molecule, the TGI [21] was greater than 100 µM, the TGI [22] was greater than 100 µM and the TGI [23] was greater than 58.5 µM. It also gave a TGI [24] greater than 100 µM, a TGI [25] of 1.91 µM and a TGI [26] greater than 63.9 µM. The TGI [27] was 12 µM, the TGI [28] was greater than 56.7 µM and the TGI [29] was greater than 57.6 µM. For the same molecule, the TGI [30] was 37.2 µM, the TGI [31] was greater than 100 µM and the TGI [32] was greater than 100 µM. The TGI [33] was greater than 44.2 µM, the TGI [34] was greater than 47.2 µM and the TGI [35] was 32.1 µM. The TGI [36] was greater than 100 µM, the TGI [37] was greater than 100 µM and the TGI [38] was greater than 54.3 µM. For the same molecule, the TGI [39] was greater than 28.4 µM, the TGI [40] was greater than 100 µM and the TGI [41] was greater than 100 µM. It also gave a TGI [42] greater than 35.8 µM, a TGI [43] greater than 33.4 µM and a TGI [44] greater than 100 µM. The TGI [45] was greater than 100 µM, the TGI [46] was greater than 100 µM and the GI50 [47] was 0.439 µM. For the same molecule, the TGI [47] was 2.63 µM, the TGI [48] was greater than 45.6 µM and the TGI [49] was greater than 100 µM. For the same molecule, the TGI [50] was greater than 100 µM, the TGI [51] was 16.3 µM and the TGI [52] was greater than 42.4 µM. For the same molecule, the TGI [53] was greater than 21 µM and the TGI [54] was 6.15 µM.
Cc1cc([N+](=O)[O-])ccc1N=NC(=O)NNc1ccc([N+](=O)[O-])cc1C showed a TGI [55] of 30.6 µM, a TGI [1] of 27.2 µM and a TGI [2] of 31.5 µM. For the same molecule, the TGI [3] was 29.4 µM, the TGI [4] was 28.3 µM and the TGI [5] was 29.3 µM. The TGI [56] was 41.7 µM, the TGI [7] was 30.1 µM and the TGI [9] was 31 µM. It also gave a TGI [10] of 28.2 µM, a TGI [11] of 50.2 µM and a TGI [57] of 40.9 µM. The TGI [12] was 29 µM, the TGI [14] was 45.6 µM and the TGI [15] was 33.8 µM. It also gave a TGI [16] of 39.9 µM, a TGI [18] of 29.8 µM and a TGI [19] of 28.3 µM. The TGI [20] was 37 µM, the TGI [21] was 20.5 µM and the TGI [23] was 28.4 µM. It also gave a TGI [24] of 29.9 µM, a TGI [25] of 37.5 µM and a TGI [58] of 31.5 µM. It also gave a TGI [26] of 41.8 µM, a TGI [27] of 33.4 µM and a TGI [28] of 51.7 µM. For the same molecule, the TGI [30] was 34.4 µM, the TGI [31] was 31.9 µM and the TGI [32] was 31.8 µM. For the same molecule, the TGI [33] was 30 µM, the TGI [34] was 26.6 µM and the TGI [35] was 55.2 µM. For the same molecule, the TGI [37] was 40.9 µM, the TGI [40] was 43.6 µM and the TGI [41] was 29.9 µM. The TGI [42] was 26.7 µM, the TGI [44] was 63.8 µM and the TGI [45] was 37.8 µM. For the same molecule, the TGI [46] was 34.7 µM, the TGI [47] was 47.6 µM and the TGI [48] was 33.7 µM. It also gave a TGI [49] of 28.9 µM, a TGI [50] of 31.5 µM and a TGI [51] of 32.9 µM. For the same molecule, the TGI [52] was 39.4 µM, the TGI [53] was 26.3 µM and the TGI [54] was 25.2 µM.
